{"source": "patent US7601738B2", "about": "“Excitatory amino acid receptor antagonists” (Eli Lilly and Company, priority 2001, dated 2009)", "data": [{"smiles": "Cl.O=C(O)c1cc2ccccc2cc1S[C@H]1CC[C@H]2CN[C@H](C(=O)O)C[C@H]2C1", "values": [{"measurement": "melting point", "result": "> 183 °C (dec.)"}]}, {"smiles": "Cc1ccc(C(=O)O)c(S[C@H]2CC[C@H]3CN[C@H](C(=O)O)C[C@H]3C2)c1.Cl", "values": [{"measurement": "melting point", "result": "> 177 °C (dec.)"}]}]}
